Assay results as given in the NIST ThermoML archive (doi:10.1016/j.tca.2010.05.009).
± gives the expanded uncertainty stated by the source.

Settings: Crystal; Differential scanning calorimeter

Question: Which Normal melting temperature does the source give for `CC(C)Cc1ccc(C(C)C(=O)O)cc1` (stereo unspecified) [ibuprofen] here?
Answer: The Normal melting temperature was 75.1 ± 1 °C.
